The subject of one assay is P. aeruginosa. The assay is classed as cell-based, Pseudomonas aeruginosa. The procedure:
(§1) In certain embodiments the MIC assays are performed as described herein in the Examples. For each organism, the media and growth conditions utilized is detailed in Table 8.
(§2) In certain embodiments the MIC assays are performed as follows: For each organism, the media and growth conditions utilized is detailed in Table 8.

In the next assay the test system is C. jeikeium. It counts as cell-based, Corynebacterium jeikium. Here is the method: as §1, §2
The subject of the next assay is S. mutans. The assay is classed as cell-based, Streptococcus mutans. Here is the method:
as §1, §2

In another assay the test system is C. difficile. The assay is classed as cell-based, Clostridium difficile. The procedure: as §1, §2
In the next assay the test system is B. subtilis. The assay is classed as cell-based, Bacillus subtilis. Here is the method: as §1, §2
The subject of a further assay is A. baumannii. It counts as cell-based, Acinetobacter baumannii. The procedure: as §1, §2
A further assay concerns A. niger. It counts as cell-based, Aspergillus niger. Here is the method:
as §1, §2

The subject of a further assay is T. rubrum. The assay is classed as cell-based, Trichophyton rubrum. The procedure:
as §1, §2

Another assay concerns S. epidermidis. The assay is classed as cell-based. Here is the method: as §1, §2
The next assay has as its system A. naeslundii. The assay is classed as cell-based, Actinomyces naeslundii. Here is the method: as §1, §2
The subject of a further assay is P. gingivalis. It counts as cell-based, Porphyromonas gingivalis. Here is the method:
as §1, §2

The subject of the next assay is F. nucleatum. It counts as cell-based, Fusobacterium nucleatum. Here is the method:
as §1, §2

The test system of the next assay is M. furfur. Briefly: MIC assay. The assay is classed as cell-based, Malassezia furfur. Particulars: ATCC medium 1072, 37° C., aerobic, 10^5 CFU/ml. Here is the method:
as §1, §2

A further assay has as its system MRSA. It counts as cell-based, Staphylococcus aureus. Particulars: MRSA; BHI supplemented with 2% glucose, 37° C., aerobic, 10^5 CFU/ml. The procedure:
as §1, §2

SMILES strings stand for the structures. ≈ marks a conversion by molar mass, not a printed value. Like-named read-outs stand apart in the source and are kept apart here. Peptide text beside a SMILES is read from it.

Regarding `CC[C@H](C)[C@H](NC(=O)[C@H](CCCCN)NC(=O)[C@@H](NC(=O)[C@H](CCCCN)NC(=O)[C@H](CCCCN)NC(=O)[C@@H](NC(=O)[C@H](CCCCN)NC(=O)[C@@H]1CCCN1C(=O)[C@H](CCCNC(=N)N)NC(=O)[C@@H]1CCCN1C(=O)[C@H](CCC(N)=O)NC(=O)[C@H](CCC(N)=O)NC(=O)[C@H](CC(N)=O)NC(=O)[C@H](CC(C)C)NC(=O)[C@H](Cc1c[nH]cn1)NC(=O)[C@H](Cc1ccccc1)NC(=O)[C@H](CCC(N)=O)NC(=O)[C@@H](NC(=O)[C@@H](N)Cc1ccc(O)cc1)[C@@H](C)CC)C(C)C)[C@@H](C)CC)C(=O)N[C@@H](Cc1ccccc1)C(=O)N[C@@H](CC(C)C)C(=O)O` [PF-531] (H-YIQFHLNQQPRPKVKKIKIFL-OH; N-terminus and C-terminus assumed), the MIC (in general, the least concentration at which growth counts as inhibited) in the assay on P. aeruginosa was found to be 50 µM (≈ 132 µg/mL); in the assay on C. jeikeium, 6.25 µM (≈ 16.5 µg/mL); with S. mutans, 12.5 µM (≈ 33 µg/mL); against C. difficile it was 12.5 µM (≈ 33 µg/mL); against B. subtilis, 25 µM (≈ 66 µg/mL); in the assay with A. baumannii, 25 µM (≈ 66 µg/mL). For the same compound, the minimum inhibitory concentration (MIC) is 25 µM (≈ 66 µg/mL) in the assay on A. niger, 50 µM (≈ 132 µg/mL) in the assay on T. rubrum and 50 µM (≈ 132 µg/mL) in the assay on S. epidermidis.
Consider `CC[C@H](C)[C@H](NC(=O)[C@H](CCC(N)=O)NC(=O)[C@H](CCCCN)NC(=O)[C@H](CC(C)C)NC(=O)[C@H](CC(C)C)NC(=O)[C@@H]1CCCN1C(=O)[C@H](CCSC)NC(=O)[C@H](CC(C)C)NC(=O)[C@H](CO)NC(=O)[C@H](CCCCN)NC(=O)CNC(=O)[C@@H](N)CCCCN)C(=O)N[C@@H](CC(N)=O)C(=O)N[C@@H](CCC(N)=O)C(=O)N[C@@H](Cc1c[nH]c2ccccc12)C(=O)NCC(=O)N[C@@H](CCCCN)C(=O)N[C@@H](CC(C)C)C(=O)N[C@@H](Cc1ccc(O)cc1)C(=O)N[C@@H](CC(C)C)C(=O)O` [PF-C239] (H-KGKSLMPLLKQINQWGKLYL-OH; N-terminus and C-terminus assumed), for which the minimum inhibitory concentration (MIC) with A. naeslundii came out at 25 µM (≈ 59 µg/mL); in the assay with P. gingivalis, 50 µM (≈ 118 µg/mL); with F. nucleatum it was 50 µM (≈ 118 µg/mL); in the assay on S. mutans, 50 µM (≈ 118 µg/mL).
Turning to `CC[C@H](C)[C@H](NC(=O)[C@@H](NC(=O)[C@H](CO)NC(=O)CN)C(C)C)C(=O)N[C@@H](CCCCN)C(=O)N[C@@H](CCCCN)C(=O)N[C@@H](CCCNC(=N)N)C(=O)N[C@@H](CCCNC(=N)N)C(=O)N[C@@H](CCCCN)C(=O)N[C@@H](CCCNC(=N)N)C(=O)N[C@@H](CCSC)C(=O)N[C@@H](CO)C(=O)N[C@@H](CCCCN)C(=O)N[C@@H](CCCCN)C(=O)N[C@@H](CCCCN)C(=O)N[C@@H](Cc1c[nH]cn1)C(=O)N[C@@H](CCCNC(=N)N)C(=O)N[C@@H](CCCCN)C(=O)N[C@@H](CCSC)C(=O)N[C@@H](CC(C)C)C(=O)N[C@@H](CCCNC(=N)N)C(=O)N[C@@H](CCCNC(=N)N)C(=O)N[C@H](C(=O)N[C@@H](CCCNC(=N)N)C(=O)N[C@H](C(=O)N[C@@H](CCC(N)=O)C(=O)N[C@@H](CCCNC(=N)N)C(=O)N[C@@H](CCCNC(=N)N)C(=O)N[C@@H](CCCCN)C(=O)N[C@@H](CC(C)C)C(=O)NCC(=O)N[C@@H](CCCCN)C(=O)O)C(C)C)[C@@H](C)O` [PF-S028], the minimum inhibitory concentration (MIC) against P. aeruginosa (P. aeruginosa, MH, 37° C., aerobic, 10^5 CFU/ml) amounted to 50 µM (≈ 202 µg/mL); against P. gingivalis (P. gingivalis, Columbia broth, 37° C., anaerobic, 10^5 CFU/ml), 25 µM (≈ 101 µg/mL); against S. mutans (S. mutans, TH supplemented with 1% sucrose, 37° C., anaerobic, 10^5 CFU/ml) it was 50 µM (≈ 202 µg/mL); with M. furfur, 2.5 µM (≈ 10.1 µg/mL); against T. rubrum (T. rubrum, Potato Dextrose Agar, 25° C., aerobic, 10^5 CFU/ml), 50 µM (≈ 202 µg/mL); in the assay with S. epidermidis (S. epidermidis, BHI supplemented with 0.25% glucose, 37° C., aerobic, 10^5 CFU/ml) it was 25 µM (≈ 101 µg/mL). Moreover, the MIC with MRSA was determined as 50 µM (≈ 202 µg/mL).

The values are drawn from patent publication US20100184684A1, “ANTIBACTERIAL AND ANTIFUNGAL PEPTIDES” (C3 JIAN, INC., priority 2009, published 2010).
